Values quoted from earlier work in KR20140119363A, “보리코나졸이 함유된 안정화된 조성물” (에스케이케미칼주식회사, priority 2013, dated 2014).

Experiments:
[1] = degradation product triazole acetophenone formed
[2] = in vivo
[3] = test system: deep-seated mycosis [심재성 진균증]

For `C[C@@H](c1ncncc1F)[C@](O)(Cn1cncn1)c1ccc(F)cc1F` [보리코나졸], which “stability to moisture and heat” value [1] is on record?
Its value is “수분 및 열에 불안정”.

Which nephrotoxicity [2] does the source give for `C[C@@H]1[C@H](O)[C@@H](C)/C=C/C=C/C=C/C=C/C=C/C=C/C=C/[C@H](O[C@@H]2O[C@H](C)[C@@H](O)[C@H](N)[C@@H]2O)C[C@@H]2O[C@](O)(C[C@@H](O)C[C@@H](O)[C@H](O)CC[C@@H](O)C[C@@H](O)CC(=O)O[C@H]1C)C[C@H](O)[C@H]2C(=O)O` [암포테리신 B] here?
Its nephrotoxicity is “심각한 문제”.

And the response rate ([3]; overall average)?
Its response rate is roughly 34%.

For `CCC(C)n1ncn(-c2ccc(N3CCN(c4ccc(OCC5COC(Cn6cncn6)(c6ccc(Cl)cc6Cl)O5)cc4)CC3)cc2)c1=O` (stereo not shown) [이트라코나졸], which treatment success rate ([3]; in vivo) is on record?
The treatment success rate was “그다지 높지 않은”.
